Source: ChEMBL document CHEMBL3997784, “Discovery of new nanomolar inhibitors of GPa: Extension of 2-oxo-1,2-dihydropyridinyl-3-yl amide-based GPa inhibitors” (Eur J Med Chem, 2017)
Activity calls are given as the source filed them. The calls are words filed in the database; no cut-off is given here.

Experiments:
[1] = molecular target: T1, Glycogen phosphorylase, muscle form (Rattus norvegicus) (UniProt P09812); conditions: 22.2 uM
T1 sequence (whole entry): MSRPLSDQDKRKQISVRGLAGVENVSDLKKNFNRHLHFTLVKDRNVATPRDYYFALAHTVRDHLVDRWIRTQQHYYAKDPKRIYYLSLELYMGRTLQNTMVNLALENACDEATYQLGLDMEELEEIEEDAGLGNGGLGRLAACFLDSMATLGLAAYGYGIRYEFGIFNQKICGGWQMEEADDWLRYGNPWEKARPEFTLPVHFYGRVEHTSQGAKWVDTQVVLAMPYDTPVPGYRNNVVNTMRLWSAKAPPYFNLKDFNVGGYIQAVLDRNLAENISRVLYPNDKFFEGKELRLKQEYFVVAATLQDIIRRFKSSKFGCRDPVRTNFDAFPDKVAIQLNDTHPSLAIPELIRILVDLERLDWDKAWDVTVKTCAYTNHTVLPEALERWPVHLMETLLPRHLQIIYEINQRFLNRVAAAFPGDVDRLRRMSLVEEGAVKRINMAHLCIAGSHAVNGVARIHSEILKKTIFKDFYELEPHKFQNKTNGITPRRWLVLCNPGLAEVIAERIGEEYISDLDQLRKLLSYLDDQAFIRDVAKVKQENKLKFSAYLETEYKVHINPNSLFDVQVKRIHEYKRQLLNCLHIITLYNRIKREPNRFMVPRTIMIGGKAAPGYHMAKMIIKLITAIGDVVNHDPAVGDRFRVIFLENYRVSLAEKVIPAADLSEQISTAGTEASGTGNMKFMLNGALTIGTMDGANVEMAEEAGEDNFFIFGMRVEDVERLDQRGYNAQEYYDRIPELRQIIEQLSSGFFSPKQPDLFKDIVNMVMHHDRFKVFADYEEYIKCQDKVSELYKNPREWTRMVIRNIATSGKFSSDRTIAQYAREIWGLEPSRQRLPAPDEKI
Description: Inhibition of rat muscle glycogen phosphorylase A assessed as release of inorganic phosphate from glucose-1- phosphate in presence of glycogen at 22.2 uM after 30 mins by malachite green based assay relative to control

[2] = molecular target: Glycogen phosphorylase, muscle form (Oryctolagus cuniculus) (UniProt P00489); test: Inhibition of rabbit muscle glycogen phosphorylase A assessed as release of inorganic phosphate from glucose-1- phosphate in presence of glycogen after 30 mins by malachite green based assay
[3] = molecular target: Glycogen phosphorylase, muscle form (Oryctolagus cuniculus) (UniProt P00489); test: Inhibition of rabbit muscle glycogen phosphorylase A assessed as release of inorganic phosphate from glucose-1- phosphate in presence of glycogen at 222 uM after 30 mins by malachite green based assay relative to control
[4] = molecular target: Glycogen phosphorylase, muscle form (Oryctolagus cuniculus) (UniProt P00489); test: Inhibition of rabbit muscle glycogen phosphorylase A assessed as release of inorganic phosphate from glucose-1- phosphate in presence of glycogen at 2.2 uM after 30 mins by malachite green based assay relative to control

Sequence of Glycogen phosphorylase, muscle form (Oryctolagus cuniculus) (P00489 whole entry, looked up): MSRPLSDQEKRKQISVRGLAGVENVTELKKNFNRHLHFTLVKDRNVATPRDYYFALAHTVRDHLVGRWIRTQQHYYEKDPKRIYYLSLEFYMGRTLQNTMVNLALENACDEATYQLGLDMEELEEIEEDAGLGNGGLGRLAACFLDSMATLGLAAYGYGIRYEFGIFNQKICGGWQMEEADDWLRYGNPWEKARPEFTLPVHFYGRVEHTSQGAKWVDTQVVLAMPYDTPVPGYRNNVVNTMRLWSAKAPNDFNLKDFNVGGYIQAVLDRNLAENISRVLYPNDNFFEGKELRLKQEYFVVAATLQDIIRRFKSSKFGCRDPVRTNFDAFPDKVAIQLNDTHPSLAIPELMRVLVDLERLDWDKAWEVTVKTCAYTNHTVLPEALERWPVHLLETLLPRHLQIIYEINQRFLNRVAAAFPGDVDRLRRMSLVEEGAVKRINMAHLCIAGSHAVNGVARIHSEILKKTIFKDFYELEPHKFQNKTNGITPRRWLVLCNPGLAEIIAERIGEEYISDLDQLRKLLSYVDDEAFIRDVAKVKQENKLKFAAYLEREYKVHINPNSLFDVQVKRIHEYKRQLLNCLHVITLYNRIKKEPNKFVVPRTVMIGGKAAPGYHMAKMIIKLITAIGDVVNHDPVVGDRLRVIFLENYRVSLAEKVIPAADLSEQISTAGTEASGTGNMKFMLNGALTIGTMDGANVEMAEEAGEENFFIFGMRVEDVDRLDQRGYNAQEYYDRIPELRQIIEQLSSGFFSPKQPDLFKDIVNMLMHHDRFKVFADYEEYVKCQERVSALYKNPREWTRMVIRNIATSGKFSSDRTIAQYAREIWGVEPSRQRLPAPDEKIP

IC50 [2] | inhibition [3] | SMILES | other results
1600 nM |  | CCCNC(=O)Cn1cccc(NC(=O)Nc2ccc(NC(=O)Nc3cccn(CC(=O)NCCC)c3=O)cc2)c1=O | inhibition [1]: > 85%
 | 38% | O=C(NCc1ccccc1)C1CCCN(C(=O)c2ccccc2Cl)C1=O (centres undefined) | 
 | inactive | O=C(NCc1ccccc1)C1CCCN(C(=O)c2ccccc2)C1=O (centres undefined) | 
260 nM |  | O=C(Cn1cccc(NCc2ccc(CNc3cccn(CC(=O)NCc4ccc(Cl)c(Cl)c4)c3=O)s2)c1=O)NCc1ccc(Cl)c(Cl)c1 | inhibition [4]: > 85%
230 nM |  | O=C(Cn1cccc(NC(=O)Nc2ccc(NC(=O)Nc3cccn(CC(=O)NCc4ccc(Cl)c(Cl)c4)c3=O)cc2)c1=O)NCc1ccc(Cl)c(Cl)c1 | inhibition [4]: > 85%
 | 39% | O=C(NCc1ccc(Cl)c(Cl)c1)C1CCCN(C(=O)c2ccccc2)C1=O (centres undefined) | 
 | 38% | Cc1ccn(CC(=O)NCc2ccc(Cl)c(Cl)c2)c(=O)c1NCc1ccccc1 | 
 | 34% | Cn1cccc(NCc2ccc(Cl)c(Cl)c2)c1=O | 
 | inactive | O=C(Cn1cccc(NC(=O)c2ccccc2)c1=O)NCCNC(=O)Cn1cccc(NC(=O)c2ccccc2)c1=O | 
 | 29% | CCOC(=O)Cn1cccc(NCc2ccc(CNc3cccn(CC(=O)OCC)c3=O)s2)c1=O | 
33000 nM | > 85% | O=c1c(NCc2ccc(Cl)c(Cl)c2)cccn1Cc1ccccc1 | 
 | inactive | O=c1c(NCc2ccccc2)cccn1Cc1ccccc1 | 
 | 60% | O=C(Cn1cccc(NCc2ccccc2)c1=O)NCc1cn(Cc2ccccc2)nn1 | 
3100 nM | > 85% | CCOC(=O)Cn1cccc(NC(=O)Nc2ccc(NC(=O)Nc3cccn(CC(=O)OCC)c3=O)cc2)c1=O | 
